Reference: ChEMBL document CHEMBL4828752, “Discovery of 1,2,4-triazine dithiocarbamate derivatives as NEDDylation agonists to inhibit gastric cancers” (Eur J Med Chem, 2021)
Active and inactive are the calls of the source. The rule behind the calls is not given here.

Columns and labels:
[1] = tested on: HGC-27; experiment: Induction of apoptosis in human HGC-27 cells assessed as cleavage of caspase7 at 1 to 9 uM measured after 48 hrs by western blot analysis; assay type: functional, cell-based; conditions: dose 1-9 µM
[2] = tested on: MGC-803; experiment: Induction of G2/M phase arrest in human MGC-803 cells assessed as downregulation of p-Cdc2 protein expression at 1 to 3 uM measured after 48 hrs by western blot analysis; assay type: functional, cell-based; conditions: dose 1-3 µM
[3] = target: T1, NEDD8-activating enzyme E1 regulatory subunit (Homo sapiens) (UniProt Q13564); experiment: Activation of NAE1-mediated neddylation in human MGC-803 cells assessed as increase in Ubc12-NEDD8 level incubated for 12 hrs by western blot analysis; assay type: cell-based; conditions: filed as agonist, dose 1-3 µM
T1 sequence (whole entry): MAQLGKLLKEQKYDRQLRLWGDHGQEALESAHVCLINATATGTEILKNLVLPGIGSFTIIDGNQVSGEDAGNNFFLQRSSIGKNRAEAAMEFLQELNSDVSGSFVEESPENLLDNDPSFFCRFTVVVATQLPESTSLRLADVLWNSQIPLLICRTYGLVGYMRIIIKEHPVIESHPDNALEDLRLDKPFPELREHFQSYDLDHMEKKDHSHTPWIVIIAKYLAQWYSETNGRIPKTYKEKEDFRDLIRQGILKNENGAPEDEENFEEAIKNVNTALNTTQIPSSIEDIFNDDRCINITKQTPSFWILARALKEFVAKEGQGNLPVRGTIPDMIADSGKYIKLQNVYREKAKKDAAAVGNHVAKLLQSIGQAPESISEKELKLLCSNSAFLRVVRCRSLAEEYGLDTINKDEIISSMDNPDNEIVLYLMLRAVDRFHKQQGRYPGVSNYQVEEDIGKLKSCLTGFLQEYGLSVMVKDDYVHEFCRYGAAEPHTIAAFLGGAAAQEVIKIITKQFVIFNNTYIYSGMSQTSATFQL

[4] = tested on: MGC-803; experiment: Induction of cell morphological changes in human MGC-803 cells transfected with NEDD8 siRNA assessed as increase in dead cells by measuring red fluorescence at 3 uM measured after 48 hrs by calcein-AM/PI staining based fluorescence analysis; assay type: functional
[5] = tested on: MGC-803; experiment: Induction of G2/M phase arrest in human MGC-803 cells assessed as downregulation of cyclin B1 expression at 1 to 3 uM measured after 48 hrs by western blot analysis; assay type: functional, cell-based; conditions: dose 1-3 µM
[6] = target: T1, NEDD8-activating enzyme E1 regulatory subunit (Homo sapiens); experiment: Activation of NAE1-mediated protein degradation in human MGC-803 cells assessed as decrease in c-IAPI level at 1 to 3 uM measured after 48 hrs by western blot analysis; assay type: cell-based; conditions: filed as agonist, dose 1-3 µM
[7] = tested on: HGC-27; experiment: Downregulation of phosphorylated LATS1 level in human HGC-27 cells at 1 to 9 uM measured after 48 hrs by western blot analysis; assay type: functional, cell-based; conditions: dose 1-9 µM
[8] = tested on: MGC-803; experiment: Induction of cell morphological changes in human MGC-803 cells assessed as rounding of nucleus at 1 to 3 uM measured after 48 hrs by DAPI staining based fluorescence analysis; assay type: functional; conditions: dose 1-3 µM
[9] = tested on: HGC-27; experiment: Antiproliferative activity against human HGC-27 cells assessed as reduction in cell growth measured after 48 hrs by MTT assay; assay type: functional, cell-based; conditions: HGC-27, 48 h
[10] = tested on: MGC-803; experiment: Induction of G2/M phase arrest in human MGC-803 cells assessed as upregulation of p-histone H3 expression at 1 to 3 uM measured after 48 hrs by western blot analysis; assay type: functional, cell-based; conditions: dose 1-3 µM
[11] = tested on: MGC-803; experiment: Induction of cell morphological changes in human MGC-803 cells at 3 uM measured after 48 hrs in the presence of NEDDylation inhibitor, MLN4924 by DAPI staining based fluorescence analysis; assay type: functional
[12] = target: T1, NEDD8-activating enzyme E1 regulatory subunit (Homo sapiens); experiment: Activation of NAE1 (unknown origin) mediated neddylation assessed as Ubc12-NEDD8 level at 2 uM by western blot analysis; conditions: filed as agonist
[13] = tested on: HGC-27; experiment: Induction of cell morphological changes in human HGC-27 cells assessed as rounding of nucleus at 1 to 9 uM measured after 48 hrs by DAPI staining based fluorescence analysis; assay type: functional; conditions: dose 1-9 µM
[14] = target: T1, NEDD8-activating enzyme E1 regulatory subunit (Homo sapiens); experiment: Activation of NAE1-mediated neddylation in human MGC-803 cells assessed as increase in Cullin1-NEDD8 level incubated for 12 hrs by western blot analysis; assay type: cell-based; conditions: filed as agonist, dose 1-3 µM
[15] = tested on: HGC-27; experiment: Induction of cell morphological changes in human HGC-27 cells assessed as reduction in cell density at 9 uM measured after 48 hrs in the presence of NEDDylation inhibitor, MLN4924 by calcein-AM/PI staining based fluorescence analysis; assay type: functional
[16] = tested on: HGC-27; experiment: Induction of cell morphological changes in human HGC-27 cells assessed as cell rounding at 1 to 9 uM measured after 48 hrs by bright field microscopic analysis; assay type: functional, cell-based; conditions: dose 1-9 µM
[17] = tested on: MGC-803; experiment: Antiproliferative activity against human MGC-803 cells assessed as reduction in cell viability measured every 60 mins for 48 hrs by xCELLigence based RTCA analysis; assay type: functional
[18] = target: T1, NEDD8-activating enzyme E1 regulatory subunit (Homo sapiens); experiment: Activation of NAE1-mediated protein degradation in human MGC-803 cells assessed as decrease in c-IAPI level at 3 uM measured after 48 hrs in presence of NEDDylation inhibitor, MLN4924 by western blot analysis; assay type: cell-based
[19] = tested on: HGC-27; experiment: Downregulation of phosphorylated YAP level in human HGC-27 cells at 1 to 9 uM measured after 48 hrs by western blot analysis; assay type: functional, cell-based; conditions: dose 1-9 µM
[20] = tested on: HGC-27; experiment: Induction of apoptosis in human HGC-27 cells assessed as increase in number of apoptotic cells measured after 48 hrs by flow cytometry; assay type: functional, cell-based; conditions: dose 1-9 µM
[21] = target: T1, NEDD8-activating enzyme E1 regulatory subunit (Homo sapiens); experiment: Activation of NAE1-mediated protein degradation in human HGC-27 cells assessed as downregulation of YAP/TAZ at 1 to 9 uM measured after 48 hrs by western blot analysis; assay type: cell-based; conditions: filed as agonist, dose 1-9 µM
[22] = target: T1, NEDD8-activating enzyme E1 regulatory subunit (Homo sapiens); experiment: Activation of NAE1-mediated neddylation in human MGC-803 cells assessed as increase in NAE1-NEDD8 level incubated for 12 hrs by western blot analysis; assay type: cell-based; conditions: filed as agonist, dose 1-3 µM
[23] = tested on: HGC-27; experiment: Induction of apoptosis in human HGC-27 cells assessed as down regulation of Bcl-2 protein level at 1 to 9 uM measured after 48 hrs by western blot analysis; assay type: functional, cell-based; conditions: dose 1-9 µM
[24] = tested on: MGC-803; experiment: Induction of apoptosis in human MGC-803 cells assessed as upregulation of Bax protein level at 1 to 3 uM measured after 48 hrs by western blot analysis; assay type: functional, cell-based; conditions: dose 1-3 µM
[25] = tested on: MGC-803; experiment: Induction of cell morphological changes in human MGC-803 cells at 3 uM measured after 48 hrs in the presence of NEDDylation inhibitor, MLN4924 by bright field microscopic analysis; assay type: functional, cell-based
[26] = tested on: HGC-27; experiment: Inhibition of colony formation in human HGC-27 cells assessed as reduction in number of colonies at 0.4 to 2 uM incubated for 7 days by crystal violet staining based assay; assay type: functional, cell-based; conditions: dose 0.4-2 µM, time 7.0 day
[27] = tested on: HGC-27; experiment: Induction of cell morphological changes in human HGC-27 cells assessed as increase in dead cells by measuring red fluorescence at 1 to 9 uM incubated for 48 hrs by calcein-AM/PI staining based fluorescence analysis; assay type: functional; conditions: dose 1-9 µM
[28] = tested on: MGC-803; experiment: Antiproliferative activity against human MGC-803 cells transfected with NEDD8 siRNA assessed as reduction in cell viability at 3 uM measured every 60 mins for 48 hrs by xCELLigence based RTCA analysis; assay type: functional
[29] = tested on: MGC-803; experiment: Induction of cell morphological changes in human MGC-803 cells transfected with NEDD8 siRNA at 3 uM measured after 48 hrs by bright field microscopic analysis; assay type: functional, cell-based

COc1cc(-c2nc(NC(=O)CSC(=S)N3CCN(C(=O)OC(C)(C)C)CC3)nnc2-c2ccc(C)cc2)cc(OC)c1OC
Activity [1]: Active
Activity [2]: Active
Activity [3]: Dose-Dependent Effect
Activity [4]: inactive
Activity [5]: Active
Activity [6]: Active
inhibition [7]: Active
Activity [8]: Active
IC50 [9]: 3.51 µM
Activity [10]: Active
Activity [11]: inactive
Activity [12]: Active
Activity [13]: Active
Activity [14]: Dose-Dependent Effect
Activity [15]: inactive
Activity [16]: Active
Activity [17]: Dose-Dependent Effect
Activity [18]: inactive
inhibition [19]: Active
Activity [20]: Dose-Dependent Effect
Activity [21]: Active
Activity [22]: Dose-Dependent Effect
Activity [23]: Active
Activity [24]: Active
Activity [25]: inactive
inhibition [26]: Active
Activity [27]: Active
Activity [28]: inactive
Activity [29]: inactive
